Experiment [1] in a line: Inhibition of alpha-glucosidase 4.
The subject of the next experiment is Bacillus cereus. Nature of the experiment: Antibacterial activity against Bacillus cereus at 100 ug after 24 hrs by agar well diffusion method. The experiment is classed as functional, organism-based.
A further experiment deals with Streptococcus pyogenes. As to the kind of experiment: Antibacterial activity against Streptococcus pyogenes at 100 ug after 24 hrs by agar well diffusion method. The experiment is classed as functional, organism-based.
The test system of a further experiment is Staphylococcus aureus. As to the kind of experiment: Antibacterial activity against […] at 100 ug after 24 hrs by agar well diffusion method. In kind it is functional, organism-based.
In a further experiment the test system is Escherichia coli. Nature of the experiment: Antibacterial activity against Escherichia coli at 100 ug after 24 hrs by agar well diffusion method. In kind it is functional, organism-based.
Another experiment concerns Proteus mirabilis. Nature of the experiment: Antibacterial activity against Proteus mirabilis at 100 ug after 24 hrs by agar well diffusion method. In kind it is functional, organism-based.
The subject of a further experiment is Salmonella typhi. Nature of the experiment: Antibacterial activity against Salmonella typhi at 100 ug after 24 hrs by agar well diffusion method. In kind it is functional, organism-based. Particulars: Salmonella enterica subsp. enterica serovar Typhi.

Calls of active or inactive are those of the source. The rule behind the calls is not given here.

`C=C(C)[C@@H]1CC[C@]2(C)CC[C@]3(C)[C@H](CC[C@@H]4[C@@]5(C)CC[C@H](O)C(C)(C)[C@@H]5[C@@H](O)C[C@]43C)[C@@H]12` had an IC50 in experiment [1] of 42.5 µM.
Consider `C=C(C)[C@@H]1CC[C@]2(C)CC[C@]3(C)[C@H](CC[C@@H]4[C@@]5(C)CC[C@H](OC(=O)CCCCCCCCCCCCCCCCC)C(C)(C)[C@@H]5[C@@H](O)C[C@]43C)[C@@H]12`, for which the outcome with Bacillus cereus, in the experiment with Streptococcus pyogenes, in the experiment with Staphylococcus aureus, with Escherichia coli, in the experiment on Proteus mirabilis and with Salmonella typhi was inactive.
